{
  "source": "patent US6743794B2",
  "about": "“Methods and compounds for inhibiting MRP1” (Eli Lilly and Company, priority 1999, dated 2004)",
  "key": {"MRP1": {"target": "T1, MRP1 (Homo sapiens, UniProt P33527)", "T1 construct": "HL60/Adr and HL60/Vinc are continuous cell lines, which were selected for doxorubicin and vincristine resistance respectively; endogenous in cells; host or cells: HL60/Adr (doxorubicin-selected HL60)", "T1 sequence (P33527 whole entry)": "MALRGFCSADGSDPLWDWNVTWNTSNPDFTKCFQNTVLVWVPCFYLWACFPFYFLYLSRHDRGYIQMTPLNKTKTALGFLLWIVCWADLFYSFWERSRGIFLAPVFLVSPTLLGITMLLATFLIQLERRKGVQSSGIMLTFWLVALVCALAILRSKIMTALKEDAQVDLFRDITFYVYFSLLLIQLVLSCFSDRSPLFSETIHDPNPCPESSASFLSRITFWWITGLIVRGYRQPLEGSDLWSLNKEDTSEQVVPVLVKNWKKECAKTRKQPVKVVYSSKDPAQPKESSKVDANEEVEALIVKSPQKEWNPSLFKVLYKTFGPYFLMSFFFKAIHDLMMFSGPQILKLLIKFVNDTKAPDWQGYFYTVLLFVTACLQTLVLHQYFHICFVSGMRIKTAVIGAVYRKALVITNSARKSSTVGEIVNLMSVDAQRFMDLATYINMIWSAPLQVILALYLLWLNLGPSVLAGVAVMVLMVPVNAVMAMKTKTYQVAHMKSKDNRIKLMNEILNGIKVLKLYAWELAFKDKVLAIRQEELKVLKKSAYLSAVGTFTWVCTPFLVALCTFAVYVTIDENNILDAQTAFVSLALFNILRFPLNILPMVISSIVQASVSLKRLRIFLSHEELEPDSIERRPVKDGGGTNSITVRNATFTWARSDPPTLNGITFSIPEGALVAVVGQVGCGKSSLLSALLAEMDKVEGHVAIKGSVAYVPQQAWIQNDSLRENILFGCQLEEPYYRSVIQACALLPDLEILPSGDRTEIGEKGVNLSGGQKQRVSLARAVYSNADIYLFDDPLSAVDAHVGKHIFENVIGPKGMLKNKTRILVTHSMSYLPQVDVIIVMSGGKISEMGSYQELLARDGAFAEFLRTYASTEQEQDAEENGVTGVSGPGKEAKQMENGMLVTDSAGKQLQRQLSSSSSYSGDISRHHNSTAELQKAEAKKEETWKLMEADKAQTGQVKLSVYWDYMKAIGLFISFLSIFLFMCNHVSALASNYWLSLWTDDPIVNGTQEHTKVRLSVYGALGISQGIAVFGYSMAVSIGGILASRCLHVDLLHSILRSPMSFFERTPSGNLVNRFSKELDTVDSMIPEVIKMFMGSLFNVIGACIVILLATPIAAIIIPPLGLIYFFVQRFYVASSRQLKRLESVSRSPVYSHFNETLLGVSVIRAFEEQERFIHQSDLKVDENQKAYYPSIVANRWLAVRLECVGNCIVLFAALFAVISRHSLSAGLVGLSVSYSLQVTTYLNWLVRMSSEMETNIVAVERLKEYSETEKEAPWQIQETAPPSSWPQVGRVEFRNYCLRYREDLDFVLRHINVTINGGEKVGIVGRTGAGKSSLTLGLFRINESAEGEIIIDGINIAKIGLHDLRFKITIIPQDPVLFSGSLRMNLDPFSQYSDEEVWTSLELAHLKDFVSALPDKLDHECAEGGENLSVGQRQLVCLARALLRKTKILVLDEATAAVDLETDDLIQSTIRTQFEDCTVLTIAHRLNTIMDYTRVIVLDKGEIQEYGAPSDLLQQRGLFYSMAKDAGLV", "assay": "Assay for reversal of MRP1-mediated doxorubicin resistance (HL60/Adr cells, alamarBlue viability)", "type": "cell-based", "conditions": "oncolytic alone at the tested concentration, no test compound", "method": "(§1) The biological activity of the compounds of the present invention was evaluated employing an initial screening assay which rapidly and accurately measured the activity of the tested compound in inhibiting MRP1 or MDR1. Assays useful for evaluating this reversing capability are well known in the art. See, e.g., T. McGrath, et al., Biochemical Pharmacology, 38:3611, 1989; D. Marquardt and M. S. Center, Cancer Research, 52:3157, 1992; D. Marquardt, et al., Cancer Research, 50:1426, 1990; and Cole, et. al., Cancer Research, 54: 5902-5910, 1994.\n(§2) Assay for Reversal of MRP1-Mediated Doxorubicin Resistance and MDR1-Mediated Vincristine Resistance\n(§3) HL60/Adr and HL60/Vinc are continuous cell lines, which were selected for doxorubicin and vincristine resistance respectively by culturing HL60, a human acute myeloblastic leukemia cell line, in increasing concentrations of doxorubicin or vincristine until a highly resistant variant was attained.\n(§4) HL60/Adr and HL60/Vinc cells were grown in RPMI 1640 (Gibco) containing 10% fetal bovine serum (FBS) and 50 μg/ml GENTAMICIN™ (Sigma). Cells were harvested; washed twice with assay medium (same as culture media); counted; and diluted to 1×10^5 cells/ml in assay medium. One hundred microliters of cells were aliquoted into wells of a 96 well tissue culture plate. […]"}, "MDR1": {"target": "T2, MDR1 (Homo sapiens, UniProt P08183)", "T2 construct": "HL60/Adr and HL60/Vinc are continuous cell lines, which were selected for doxorubicin and vincristine resistance respectively; endogenous in cells; host or cells: HL60/Vinc (vincristine-selected HL60)", "T2 sequence (P08183 whole entry)": "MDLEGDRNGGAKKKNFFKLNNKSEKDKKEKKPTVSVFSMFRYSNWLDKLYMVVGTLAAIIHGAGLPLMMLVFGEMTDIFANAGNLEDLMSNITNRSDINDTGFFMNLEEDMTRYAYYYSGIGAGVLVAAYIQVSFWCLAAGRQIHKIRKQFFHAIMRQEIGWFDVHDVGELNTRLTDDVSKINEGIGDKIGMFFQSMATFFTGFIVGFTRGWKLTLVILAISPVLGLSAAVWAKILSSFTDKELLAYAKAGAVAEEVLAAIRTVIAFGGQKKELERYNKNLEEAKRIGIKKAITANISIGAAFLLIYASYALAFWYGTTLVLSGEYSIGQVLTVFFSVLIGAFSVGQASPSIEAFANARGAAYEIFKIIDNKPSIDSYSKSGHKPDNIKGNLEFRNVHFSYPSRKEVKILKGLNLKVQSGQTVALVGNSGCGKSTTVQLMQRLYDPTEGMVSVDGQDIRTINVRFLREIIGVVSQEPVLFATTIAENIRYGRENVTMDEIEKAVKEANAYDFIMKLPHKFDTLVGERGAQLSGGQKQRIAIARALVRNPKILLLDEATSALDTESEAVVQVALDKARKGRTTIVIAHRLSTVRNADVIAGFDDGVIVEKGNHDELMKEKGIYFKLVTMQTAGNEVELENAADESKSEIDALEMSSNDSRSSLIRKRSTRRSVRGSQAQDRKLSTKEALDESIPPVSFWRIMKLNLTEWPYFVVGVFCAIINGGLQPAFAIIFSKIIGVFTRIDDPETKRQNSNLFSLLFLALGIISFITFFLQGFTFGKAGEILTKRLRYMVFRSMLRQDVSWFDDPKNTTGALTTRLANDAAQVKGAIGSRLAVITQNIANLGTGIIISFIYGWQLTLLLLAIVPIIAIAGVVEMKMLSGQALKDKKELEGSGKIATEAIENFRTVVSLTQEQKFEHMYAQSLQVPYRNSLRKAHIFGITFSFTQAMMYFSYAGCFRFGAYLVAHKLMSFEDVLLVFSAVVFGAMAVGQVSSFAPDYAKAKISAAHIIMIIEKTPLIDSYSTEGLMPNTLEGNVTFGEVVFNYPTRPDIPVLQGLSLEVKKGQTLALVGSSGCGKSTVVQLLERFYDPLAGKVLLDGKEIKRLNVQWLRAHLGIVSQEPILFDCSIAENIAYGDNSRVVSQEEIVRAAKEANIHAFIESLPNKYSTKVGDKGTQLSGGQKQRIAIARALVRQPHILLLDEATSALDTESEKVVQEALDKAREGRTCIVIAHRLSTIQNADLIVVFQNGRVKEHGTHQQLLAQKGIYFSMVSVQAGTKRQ", "assay": "Assay for reversal of MDR1-mediated vincristine resistance (HL60/Vinc cells, alamarBlue viability)", "type": "cell-based", "conditions": "oncolytic alone at the tested concentration, no test compound", "method": "as §1, §2, §3, §4"}},
  "data": [
    {"molecule": "COc1cccc2c1C(=O)c1c(O)c3c(c(O)c1C2=O)C[C@@](O)(C(=O)CO)C[C@@H]3O[C@H]1C[C@H](N)[C@H](O)[C@H](C)O1", "note": "[doxorubicin]", "values": [
      {"measurement": "inhibition of cell growth by the oncolytic alone", "setting": "MRP1", "result": "minimally inhibits"},
      {"measurement": "inhibition of cell growth by the oncolytic alone", "setting": "MDR1", "result": "minimally inhibits"}
    ]}
  ]
}
